Measurements taken from paper PMC3673896, “3,4-dihydroxyphenyl acetic acid and (+)-epoxydon isolated from marine algae-derived microorganisms induce down regulation of epidermal growth factor activated mitogenic signaling cascade in Hela cells” (Cancer Cell International, 2013).
pIC50: −log10 of the molar value.

Biological target: EGF receptor tyrosine kinase (EGFR) (Homo sapiens, UniProt P00533)
Assay: AlphaScreen P-Tyr-100 kinase assay with poly[Glu:Tyr] ([…]) substrate
Type: biochemical

Sequence of EGF receptor tyrosine kinase (EGFR) (P00533 669-1210 limits assumed): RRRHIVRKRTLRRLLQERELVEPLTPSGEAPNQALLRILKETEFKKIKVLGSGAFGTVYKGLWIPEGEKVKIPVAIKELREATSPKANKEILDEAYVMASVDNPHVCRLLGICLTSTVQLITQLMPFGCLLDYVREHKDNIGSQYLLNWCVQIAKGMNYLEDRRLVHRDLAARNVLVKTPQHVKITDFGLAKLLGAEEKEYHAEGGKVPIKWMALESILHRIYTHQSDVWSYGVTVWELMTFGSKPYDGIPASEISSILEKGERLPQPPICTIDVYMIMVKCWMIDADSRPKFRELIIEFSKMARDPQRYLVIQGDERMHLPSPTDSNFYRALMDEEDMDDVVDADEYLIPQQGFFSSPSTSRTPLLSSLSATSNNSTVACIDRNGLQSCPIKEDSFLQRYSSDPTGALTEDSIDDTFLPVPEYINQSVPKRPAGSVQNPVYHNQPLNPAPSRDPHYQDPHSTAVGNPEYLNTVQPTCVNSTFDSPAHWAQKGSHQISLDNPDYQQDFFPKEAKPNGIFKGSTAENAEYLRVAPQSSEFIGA

pIC50	Structure (SMILES)
4.78	O=C(O)Cc1ccc(O)c(O)c1 [3,4-dihydroxyphenyl acetic acid]
5.42	O=C1C(CO)=C[C@@H](O)[C@H]2O[C@@H]12 [(+)-epoxydon]
